Structures can show the parent of a compound that is named as a salt.
Tests used:
[1] = Metabolic stability in human liver microsomes (microsomal clearance); assay type: in vitro ADME; conditions: pH 7.4; human liver microsomes 0.25 mg protein/mL, 0.5 μM compound, NADPH, 37° C.; read-out: mClint
Protocol: Samples of the tested compounds (0.5 μM) were preincubated together with human liver microsomes (0.25 mg of microsomal protein/mL) in 0.05 M potassium phosphate buffer of pH 7.4 in microtiter plates at 37° C. for 5 minutes. The reaction was started by adding NADPH (1.0 mM). After 0, 5, 10, 15, 20 and 30 minutes, an aliquot was removed, the reaction was cooled and stopped by adding twice the amount of quench solution consisting of acetonitrile/methanol 1:1, and containing 0.2 μM carbutamide as internal standard. The samples were frozen until analyzed. The remaining concentration of undegraded test substance was determined by liquid chromatography-tandem mass spectrometry (LC-MS/MS). The half-life (t1/2) was determined from the gradient of the ratio of the signal of (test substance/internal standard)/unit time plot, allowing the calculation of the half-life of the test substance, assuming first order kinetics, from the decrease in the concentration of the compound with time. The microsomal clearance (mClint) was calculated as follows: mClint=((ln(2)/t 1/2)/Microsomal Protein Concentration (mg/ml))*1000, leading to the unit of μL/min/mg.

[2] = molecular target: T1, h-5-HT6 receptor (Homo sapiens, UniProt P50406); assay: 5-HT6 receptor binding assay (displacement of [3H]-LSD); conditions: cloned human 5-HT6 receptor, HEK293 membranes, 1 nM [3H]-LSD
T1 construct: expressed in transfected cells
Protocol: Displacement of radioligands binding to the following cloned human receptors
1. Preparation of Membranes by Ultrasonic Treatment and Differential Centrifugation
Cells from stable clonal cell lines expressing the corresponding receptor (5-HT6, α1-adrenergic, dopamine D2 or histamine H1 receptors) were washed with PBS (w/o Ca^++, Mg^++) and harvested in PBS with 0.02% EDTA. The cells were collected by centrifugation at 500 g for 10 min. at 4° C., washed with PBS and centrifuged (500 g, 10 min. 4° C.). The pellets were stored at −80° C. until use. For membrane preparation, the thawed cell pellet was resuspended in ice-cold sucrose buffer (0.25 M sucrose, 10 mM Hepes (pH 7.4), 1 mM Phenylmethylsulfonyl fluoride (PMSF) in DMSO, 5 μg/ml Pepstatin-A, 3 mM EDTA, 0.025% Bacitracin) and homogenized with a Branson Sonifier W-250 (Settings: Timer 4; Output Control 3; Duty Cycle constant; 2 to 3 cycles). Cell disruption was checked with the aid of a microscope. Remaining unbroken cells were pelleted at 1.000 g for 10 min. at 4° C. The sucrose buffer supernatant was then centrifuged at 60.000 g for 1 h at 4° C. (Beckman Ultrazentrifuge XL 80). The pellet was resuspended in 30 ml ice-cold Tris buffer (20 mM TRIS (pH 7.4), 5 μg/ml Pepstatin A, 0.1 mM PMSF, 3 mM EDTA) by pipetting through a 10 ml serological pipet and centrifuged for 1 h at 4° C. at 60.000 g. A final resuspension was performed in a small volume of ice-cold Tris buffer (see above) by pressing through a serological pipet followed by ultrasonic treatment with a Branson Sonifier W-250 (Settings: Timer 1; Output Control 3; Duty Cycle constant; 1 cycle). Protein concentration was determined (BCA-Kit; Pierce) and aliquots stored at −80° C. or in liquid nitrogen for long-term storage.
2. Receptor Binding Experiments
All receptor binding experiments were carried out in the corresponding assay buffer in a total volume of 200 μl in the presence of various concentrations of test compound (10^−5 M to 10^−9 M, tenfold serial dilution, duplicate determinations). The assays were terminated by filtration on polyethylenimine (PEI 0.1% or 0.3%) presoaked Packard Unifilter Plates (GF/C or GF/B) with a Tomtec MachIII U 96 well-plate harvester. After the plates had been dried for 2 h at 55° C. in a drying chamber scintillation cocktail (BetaPlate Scint; PerkinElmer) was added. Radioactivity was measured in a Microbeta Trilux two hours after the addition of the scintillation mixture. Data derived from liquid scintillation counting were analysed by iterative non-linear regression analysis with the use of the Statistical Analysis System (SAS): a program similar to “LIGAND” as described by Munson and Rodbard (Analytical Biochemistry 107, 220-239 (1980).
a) 5-HT6 Receptor Binding Assay
HEK293 cells stably expressing the h-5-HT6 receptor (NCBI Reference Sequence XM 001435) were cultured in RPMI1640 medium supplemented with 25 mM HEPES, 10% fetal calf serum and 1-2 mM glutamine. The membrane preparation was performed as described in section 1. […] Non-specific binding was defined with 1 μM methiothepin. The binding reaction was carried out for 3.5 h at room temperature. During the incubation, the plates were shaken on a plate shaker at 100 rpm and terminated by filtration on Packard Unifilter GF/C (0.1% PEI) plates, followed by 2 wash cycles with ice-cold 50 mM Tris-HCl, 5 mM CaCl2.
Data derived from liquid scintillation counting were analyzed by iterative non-linear regression analysis with the use of the Statistical Analysis System (SAS): a program similar to “LIGAND” as described by Munson and Rodbard (Anal. Biochem. 1980, 107, 220-239). Fitting was performed according to formulae described by Feldman (Anal. Biochem. 1972, 48, 317-338). IC50, nH and Ki values were expressed as geometrical mean.

T1 sequence (P50406 whole entry): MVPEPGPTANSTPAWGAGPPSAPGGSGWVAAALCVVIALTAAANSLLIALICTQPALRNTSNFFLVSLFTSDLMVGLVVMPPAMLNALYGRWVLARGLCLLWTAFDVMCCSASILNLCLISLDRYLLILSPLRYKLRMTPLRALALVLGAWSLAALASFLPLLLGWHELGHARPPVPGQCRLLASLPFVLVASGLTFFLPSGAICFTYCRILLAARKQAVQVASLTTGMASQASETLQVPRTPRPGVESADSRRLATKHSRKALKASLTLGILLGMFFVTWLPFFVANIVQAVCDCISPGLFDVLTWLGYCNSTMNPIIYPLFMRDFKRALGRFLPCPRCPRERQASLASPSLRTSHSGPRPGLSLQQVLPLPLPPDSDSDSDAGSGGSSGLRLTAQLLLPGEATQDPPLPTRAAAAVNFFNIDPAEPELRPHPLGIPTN

Compound | microsomal CLint at 0.5 μM [1] | Ki [2]
COc1ccccc1S(=O)(=O)c1cnc2c(N3CCC(O)CC3)cccc2c1 [Example 21, 1-[3-(2-Methoxyphenyl)sulfonyl-8-quinolyl]piperidin-4-ol] | 60 to 120 µL/min/mg | 10 to 100 nM
O=S(=O)(c1ccccc1)c1cnc2c(N3CCC[C@H](O)C3)cccc2c1 [Example 22, (3S)-1-[3-(Benzenesulfonyl)-8-quinolyl]piperidin-3-ol] | 30 to 60 µL/min/mg | 10 to 100 nM
COc1cccc(S(=O)(=O)c2cnc3c(N4CCC(C(=O)O)CC4)cccc3c2)c1 [Example 15, 1-[3-(3-Methoxyphenyl)sulfonyl-8-quinolyl]piperidine-4-carboxylic Acid] | < 30 µL/min/mg | 100 to 500 nM
O=S(=O)(c1cccc(OC(F)F)c1)c1cnc2c(N3CCC(O)CC3)cccc2c1 [Example 29, 1-[3-[3-(Difluoromethoxy)phenyl]sulfonyl-8-quinolyl]piperidin-4-ol] | < 30 µL/min/mg | < 10 nM
O=S(=O)(c1cccc(F)c1)c1cnc2c(N3CC(O)C3)cccc2c1 [Example 10, 1-[3-(3-Fluorophenyl)sulfonyl-8-quinolyl]azetidin-3-ol] | 30 to 60 µL/min/mg | < 10 nM
O=C(O)[C@@H]1CCN(c2cccc3cc(S(=O)(=O)c4cccc(C(F)(F)F)c4)cnc23)C1 [Example 12, (3R)-1-[3-[3-(Trifluoromethyl)phenyl]sulfonyl-8-quinolyl]pyrrolidine-3-carboxylic Acid] | < 30 µL/min/mg | 10 to 100 nM
O=S(=O)(c1ccccc1)c1cnc2c(N3C[C@@H](O)[C@H](O)C3)cccc2c1 [Example 45, (3R,4R)-1-[3-(Benzenesulfonyl)-8-quinolyl]pyrrolidine-3,4-diol] | < 30 µL/min/mg | < 10 nM
O=S(=O)(c1cccc(C(F)(F)F)c1)c1cnc2c(N3CC[C@@H](O)C3)cccc2c1 [Example 19, (3R)-1-[3-[3-(Trifluoromethyl)phenyl]sulfonyl-8-quinolyl]pyrrolidin-3-ol] | 30 to 60 µL/min/mg | 10 to 100 nM
O=C(O)C1CCCN(c2cccc3cc(S(=O)(=O)c4cccc(C(F)(F)F)c4)cnc23)C1 (centres unmarked) [Example 6, 1-[3-(3-Trifluoromethyl-benzenesulfonyl)-quinolin-8-yl]-piperidine-3-carboxylic Acid] | < 30 µL/min/mg | 10 to 100 nM
O=S(=O)(c1cccc(C(F)(F)F)c1)c1cnc2c(N3CCC[C@H](O)C3)cccc2c1 [Example 4, (S)-1-[3-(3-Trifluoromethyl-benzenesulfonyl)-quinolin-8-yl]-piperidin-3-ol Hydrochloride] | 60 to 120 µL/min/mg | < 10 nM
O=S(=O)(c1ccccc1)c1cnc2c(N3C[C@H](O)C[C@H](O)C3)cccc2c1 [Example 36, (3R,5S)-1-[3-(Benzenesulfonyl)-8-quinolyl]piperidine-3,5-diol] | < 30 µL/min/mg | < 10 nM
O=C(O)C1CN(c2cccc3cc(S(=O)(=O)c4cccc(C(F)(F)F)c4)cnc23)C1 [Example 44, 1-[3-[3-(Trifluoromethyl)phenyl]sulfonyl-8-quinolyl]azetidine-3-carboxylic Acid] | < 30 µL/min/mg | 10 to 100 nM
O=S(=O)(c1cccc(F)c1)c1cnc2c(N3CCC[C@@H](O)C3)cccc2c1 [Example 20, (3R)-1-[3-(3-Fluorophenyl)sulfonyl-8-quinolyl]piperidin-3-ol] | 30 to 60 µL/min/mg | < 10 nM
O=C(O)C1CCN(c2cccc3cc(S(=O)(=O)c4cccc(OC(F)F)c4)cnc23)CC1 [Example 31, 1-[3-[3-(Difluoromethoxy)phenyl]sulfonyl-8-quinolyl]piperidine-4-carboxylic Acid] | < 30 µL/min/mg | 10 to 100 nM
COc1cccc(S(=O)(=O)c2cnc3c(N4CCC(O)CC4)cccc3c2)c1 [Example 13, 1-[3-(3-Methoxyphenyl)sulfonyl-8-quinolyl]piperidin-4-ol] | 60 to 120 µL/min/mg | < 10 nM
O=S(=O)(c1cccc(C(F)(F)F)c1)c1cnc2c(N3CCC(O)C3)cccc2c1 (centres unmarked) [Example 2, 1-[3-(3-Trifluoromethyl-benzenesulfonyl)-quinolin-8-yl]-pyrrolidin-3-ol] | 60 to 120 µL/min/mg | < 10 nM

From patent US10160744B2, “Quinoline compounds suitable for treating disorders that respond to the modulation of the serotonin 5-HT6 receptor” (Abbvie Deutschland GmbH & Co. KG, priority 2016, dated 2018)
